According to patent US11142505B2, “Compositions for APP-selective BACE inhibition and uses therefor” (The Regents of the University of California, priority 2015, dated 2021):
Where “and” joins values, the source holds several entries; their conditions need not be identical. Identical values can stand only once. Counter-ions that a name gives are not always drawn. Like-named read-outs stand apart in the source and are kept apart here.

Columns and labels:
[1] = system: CHO-7W cells that were stably transfected with human APP (wildtype); assay: Secondary cell-based test of APP processing (sAPPalpha, sAPPbeta, Abeta 1-42); conditions: for sAPP (α/β) / sAPPα/Aβ / sAPPalpha / Abeta 1-42 / sAPPbeta: Secondary (1st test, n = 3); for sAPP (α/β) / sAPPα/Aβ: ratio; for Abeta 1-42 / sAPPbeta: ↓ decrease; for Aβ1-42 peptide formation, in words: FIG. 1C, FIG. 5B
From the text: Cellular Assays: Numerous cell-based assays can be used to evaluate the activity of agent(s) of interest on relative alpha-secretase activity to beta-secretase activity and/or processing of APP to release amyloidogenic versus non-amyloidogenic oligomers.
Relative activity of the alpha-secretase to the beta-secretase can be measured by analysis of one or more cleavage products of the APP substrate. For example, inhibition of beta-secretase activity against the substrate APP would be expected to decrease release of specific beta-secretase induced APP cleavage products such as Aβ (e.g., Aβ40 or Aβ42), sAPPβ and APPneo. Promotion or enhancement of alpha-secretase activity against the substrate APP would be expected to increase release of specific alpha-secretase induced APP cleavage products such as sAPPα and p3 peptide.
In such assays, for example, the cells expressing APP, alpha-secretase and/or beta-secretase are incubated in a culture medium under conditions suitable for alpha-secretase and/or beta-secretase enzymatic activity at its cleavage site on the APP substrate. On exposure of the cells to the agent(s), the amount of Aβ released into the medium and/or the amount of CTF99 fragments of APP in the cell lysates is reduced as compared with the control. The cleavage products of APP can be analyzed, for example, by immune reactions with specific antibodies, as discussed above.

solubility (Sol) = type: physicochemical; conditions: Table 3
[2] = pharmacokinetics, plasma and brain levels; type: in vivo
From the text: As is readily apparent, not all compounds were equally able to cross the blood brain barrier, but most compounds did reach pharmacologically meaningful levels given their low IC50 values. FIG. 5A provides a further exemplary compound (FAH65) and FIG. 5B depicts dose response data for Aβ1-42 production in a cell based system.. Further shown are effects observed with regard to Aβ1-42 production, sAPPβ and sAPPα formation. […] Here, data are presented for oral and subcutaneous administration (SQ) at dosages of 10- and 30 mg/kg. […] Once more, it should be noted that these exemplary compounds are preferential towards APP in BACE inhibition as can be taken from the data for Aβ1-42, sAPPβ, and sAPPα formation.

BACE1 = BACE1 (Homo sapiens (Human), UniProt P56817); assay: in vitro BACE inhibition assay (Primary BACE1 IC50); type: biochemical; conditions: for BACE activity / IC50 in the BACE assay, in words: FIG. 1B, FIG. 2B
Sequence of BACE1 (P56817 46-501): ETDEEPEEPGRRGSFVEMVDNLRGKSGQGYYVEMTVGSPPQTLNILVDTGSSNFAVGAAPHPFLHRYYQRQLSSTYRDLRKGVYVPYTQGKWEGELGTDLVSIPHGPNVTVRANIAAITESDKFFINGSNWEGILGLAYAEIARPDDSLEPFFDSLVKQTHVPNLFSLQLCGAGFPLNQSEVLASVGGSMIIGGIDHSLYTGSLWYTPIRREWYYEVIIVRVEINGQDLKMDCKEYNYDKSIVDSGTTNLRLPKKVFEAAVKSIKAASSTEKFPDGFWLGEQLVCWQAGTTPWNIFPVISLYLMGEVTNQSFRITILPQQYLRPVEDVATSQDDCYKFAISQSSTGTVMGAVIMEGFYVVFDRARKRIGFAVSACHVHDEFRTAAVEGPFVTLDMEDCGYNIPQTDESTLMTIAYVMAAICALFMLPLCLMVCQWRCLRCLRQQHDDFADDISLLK
From the text: ABBI Assay: APP Binding BACE Inhibitor (ABBI) activity of any of the compounds described herein can readily be verified using, for example, assays described herein. […] In one illustrative embodiment, an MBP-C125 APP695 wt fusion protein can be used as one of the substrates and the second substrate can be the commercially available P5-P5′ fluorescence substrate.

[3] = one cell spans the readout columns
[4] = Table 4, several values in a cell are repeat determinations, read-out: BACE1 IC50

Row | SMILES | sAPP (α/β) ([1]; ↑ increase) | sAPPα/Aβ ([1]; ↑ increase) | sAPPalpha ([1]; ↑ increase) | Abeta 1-42 [1] | sAPPbeta [1] | other results
1 | Cc1cc(C2(C3CCCCC3)N=C(N)N(C)C2=O)ccc1OC(F)F (stereo not drawn) [FAH-59] | – | – | – | – | – | Secondary (1st test) toxicity [1, 3]: Toxic
2 | Cc1cccc(C2(c3ccc(OC(F)F)c(C)c3)N=C(N)N(C)C2=O)c1 (stereo not drawn) [FAH-27] | ↑>100% | ↑>100% | ↑>30% | ↓>40% | ↓>30% | –
3 | COCc1cc(C2(c3ccc(OC(F)F)c(C)c3)N=C(N)N(C)C2=O)ccn1 (stereo not drawn) [FAH-53] | ↑≈50% | – | ↑>10% | ↓<10% | ↓<10% | sAPPα/Aβ ([1]; ↓ (decrease)): ↓≈20%
4 | Cc1cc(C2(c3cccc(-c4cccnc4)c3)N=C(N)N(C)C2=O)ccc1OC(F)F (stereo not drawn) [FAH-32] | ↑>100% | ↑>100% | ↑>20% | ↓>60% | ↓>30% | Sol (solubility (Sol)): Med; Aβ1-42 peptide formation, in words [1]: substantially reduced; sAPPα formation, in words ([1]; FIG. 1D, compared to FAH17): increased sAPPα formation as compared to FAH17; sAPPβ formation, in words ([1]; FIG. 1D, compared to FAH17): reduced as compared to FAH17; Cmax brain [2]: <0.02 µM; BACE activity / IC50 in the BACE assay, in words (BACE1): significantly reduced IC50
5 | Cc1cc(C2(c3cccc(C4CNC4)c3)N=C(N)N(C)C2=O)ccc1OC(F)CF (stereo not drawn) [FAH-64] | – | – | – | – | – | IC50 (BACE1; [4]): 3200 nM
6 | Cc1cc(C2(c3cnn(C)c3)N=C(N)N(C)C2=O)ccc1OC(F)F (stereo not drawn) [30 HCl] | ↑≈40% | – | ↑>10% | – | ↓>20% | –
7 | COCc1cccc(C2(c3ccc(OC(F)F)c(C)c3)N=C(N)N(C)C2=O)c1 (stereo not drawn) [FAH-44] | ↑>100% | – | ↑>10% | ↓>30% | ↓>30% | Sol (solubility (Sol)): Excellent; sAPPα/Aβ ([1]; ↓ (decrease)): ↓>100%; Cmax brain [2]: ~0.2 µM; IC50 (BACE1; Table 3, read-out: IC50): ~250 nM
8 | Cc1cc(C2(c3cncc(F)c3)N=C(N)N(C)C2=O)ccc1OC(F)F (stereo not drawn) [FAH-37] | ↑>50% | – | ↑>10% | ↓≈20% | ↓>20% | Sol (solubility (Sol)): Good; sAPPα/Aβ ([1]; ↓ (decrease)): ↓>40%; Cmax brain [2]: ~0.11 uM μM; BACE activity / IC50 in the BACE assay, in words (BACE1): less effective in reducing BACE activity in vitro; IC50 (BACE1; [4]): 1930 nM and 2800 nM and 4700 nM; IC50 (BACE1; Tables 1 and 2, read-out: Primary BACE1 IC50): 150 nM
9 | Cc1cc(C2(c3cocn3)N=C(N)N(C)C2=O)ccc1OC(F)F (stereo not drawn) [FAH-38] | – | – | – | – | – | Secondary (1st test) result across all readouts [1, 3]: unchanged
10 | Cc1cc(C2(c3ccnc(F)c3)N=C(N)N(C)C2=O)ccc1OC(F)F (stereo not drawn) [FAH-46] | ↑≈10% | – | ↑>10% | ↓>20% | ↓<10% | Sol (solubility (Sol)): Good; sAPPα/Aβ ([1]; ↓ (decrease)): ↓>40%; Cmax brain [2]: ~0.3 µM
11 | Cc1cc(C2(C3CCN(C)CC3)N=C(N)N(C)C2=O)ccc1OC(F)CF (stereo not drawn) [FAH-67] | – | – | – | – | – | IC50 (BACE1; [4]): 24200 nM
12 | CCCC1CC(C2(C3=CC(C)=C(OC(F)F)C(C)C3)N=C(N)N(C)C2=O)CCN1C (stereo not drawn) [FAH-68] | – | – | – | – | – | IC50 (BACE1; [4]): 16100 nM
13 | Cc1cc(C2(c3cccc(F)c3)N=C(N)N(Cc3ccccc3)C2=O)ccc1OC(F)F (stereo not drawn) [FAH-42] | ↑>50% | unchanged | ↑>10% | ↓≈10% | ↓>30% | –
14 | Cc1cc(C2(c3cccc(F)c3)N=C(N)N(C)C2=O)ccc1OC(F)F (stereo not drawn) [FAH-17] | ↑>100% | ↑>100% | ↑>20% | ↓>30% | ↓>30% | Sol (solubility (Sol)): Med; Cmax brain [2]: ~0.3 µM
15 | Cc1cc(C2(c3cccc(-c4cncc(F)c4)c3)N=C(N)N(C)C2=O)ccc1OC(F)F (stereo not drawn) [FAH-66] | – | – | – | – | – | IC50 (BACE1; [4]): 120 nM
16 | Cc1cc(F)cc(C2(c3ccc(OC(F)F)c(C)c3)N=C(N)N(C)C2=O)c1 (stereo not drawn) [FAH-22] | ↑≈50% | ↑>100% | ↑>10% | ↓>25% | ↓>20% | IC50 (BACE1; [4]): 710 nM
17 | COc1cc(C2(c3ccc(OC(F)F)c(C)c3)N=C(N)N(C)C2=O)ccn1 (stereo not drawn) [FAH-48] | ↑≈50% | – | ↑>10% | ↓≈10% | ↓>20% | sAPPα/Aβ ([1]; ↓ (decrease)): ↓>20%
18 | Cc1cc(C2(c3ccc(OC(F)F)c(C)c3)N=C(N)N(C)C2=O)ccn1 (stereo not drawn) [FAH-47] | ↑>50% | – | ↑>10% | ↓≈10% | ↓>20% | sAPPα/Aβ ([1]; ↓ (decrease)): ↓>20%
19 | Cc1cc(C2(c3cccc(C(F)(F)F)c3)N=C(N)N(C)C2=O)ccc1OC(F)F (stereo not drawn) [FAH-28] | ↑>50% | ↑>40% | ↑>20% | ↓>20% | ↓>20% | –
20 | Cc1cc(C2(c3cncnc3)N=C(N)N(C)C2=O)ccc1OC(F)F (stereo not drawn) [FAH-33] | ↑≈10% | ↑>20% | ↑>10% | ↓≈10% | Unchanged | –
21 | Cc1cc(C2(c3cccc(Cl)c3)N=C(N)N(C)C2=O)ccc1OC(F)F (stereo not drawn) [FAH-23] | ↑>50% | ↑>100% | ↑>20% | ↓>25% | ↓>20% | –
22 | CNCc1cccc(C2(c3ccc(OC(F)F)c(C)c3)N=C(N)N(C)C2=O)c1 (stereo not drawn) [FAH-62] | ↑≈50% | – | ↑>10% | ↓<10% | ↓>20% | Sol (solubility (Sol)): Good; sAPPα/Aβ ([1]; ↓ (decrease)): ↓≈30%
23 | Cc1cc(C2(c3cccc(-c4cncnc4)c3)N=C(N)N(C)C2=O)ccc1OC(F)F (racemic) [FAH-65] | – | – | – | – | – | Aβ1-42 peptide formation, in words [1]: strongly reduces Aβ1-42 production; preference towards APP in BACE inhibition, in words ([1]; from Aβ1-42, sAPPβ and sAPPα formation): clear preference towards APP in BACE inhibition; brain levels / crossing the blood brain barrier, in words ([2]; FIG. 4, FIG. 5C (oral and SQ, 10 and 30 mg/kg)): pharmaceutically meaningful concentrations can be achieved in the brain
24 | Cc1cc(C2(c3cc(F)cc(F)c3)N=C(N)N(C)C2=O)ccc1OC(F)F (stereo not drawn) [FAH-03] | ↑≈50% | ↑>50% | ↑>10% | ↓>20% | ↓>20% | –
25 | Cc1cc(C2(c3cc(F)cc(Cl)c3)N=C(N)N(C)C2=O)ccc1OC(F)F (stereo not drawn) [FAH-25] | ↑≈50% | ↑>40% | ↑>10% | ↓>20% | ↓>20% | –
